Results from ChEMBL document CHEMBL3045491, “Antituberculosis activity of hydrazones derived from 4-fluorobenzoic acid hydrazide” (2009).

Test system: Mycobacterium tuberculosis
Test: Antitubercular activity against Mycobacterium tuberculosis H37Rv ATCC 27294 at 6.25 ug/ml by microplate alamar blue assay
Assay type: functional

In the case of `C/C(=N\NC(=O)c1ccc(F)cc1)c1cccs1`, the inhibition at 6.25 µg/mL is reported as 50%.
With `C/C(=N\NC(=O)c1ccc(F)cc1)c1ccc[nH]1` the inhibition at 6.25 µg/mL was 66%.
`CN(C)CCCOc1ccc(/C=N/NC(=O)c2ccc(F)cc2)cc1` showed an inhibition at 6.25 µg/mL of 58%.
Work on `C/C(=N\NC(=O)c1ccc(F)cc1)c1ccccc1` yielded an inhibition at 6.25 µg/mL of 59%.
Work on `C/C(=N\NC(=O)c1ccc(F)cc1)c1ccc(Cl)s1` yielded an inhibition at 6.25 µg/mL of 64%.
Work on `C=C/C(C)=N/NC(=O)c1ccc(F)cc1` yielded an inhibition at 6.25 µg/mL of 56%.
Molecule `O=C(N/N=C/c1ccc(Cl)cc1Cl)c1ccc(F)cc1` has an inhibition at 6.25 µg/mL of 62%.
`O=C(N/N=C/c1c(Cl)cccc1Cl)c1ccc(F)cc1` showed an inhibition at 6.25 µg/mL of 85%.
`C/C(=N\NC(=O)c1ccc(F)cc1)c1ccncc1` was tested, and the inhibition at 6.25 µg/mL was 53%.
With `O=C(N/N=C/c1cc(Cl)cc(Cl)c1)c1ccc(F)cc1` the inhibition at 6.25 µg/mL was 65%.
`C/C(=N\NC(=O)c1ccc(F)cc1)c1ccc(Br)s1` gave an inhibition at 6.25 µg/mL of 59%.
With `C/C(=N\NC(=O)c1ccc(F)cc1)c1ccco1` the inhibition at 6.25 µg/mL was 53%.
`O=C(N/N=C/c1cc(Cl)cc(Cl)c1O)c1ccc(F)cc1` gave an inhibition at 6.25 µg/mL of 69%.
For `CC/C(=N\NC(=O)c1ccc(F)cc1)c1ccccc1`, the inhibition at 6.25 µg/mL was 53%.
For `O=C(N/N=C/c1cccc(F)c1)c1ccc(F)cc1`, the inhibition at 6.25 µg/mL was 52%.
`O=C(N/N=C/c1cccc(Oc2ccccc2)c1)c1ccc(F)cc1` was tested, and the inhibition at 6.25 µg/mL was 84%.
